Data set [1] has as its system human AML cells. As to the kind of experiment: Flow cytometry of CD34/CD38 and LRC marker proteins (DRD2, SLC2A2, FASLG, FUT3) in human AML cells from xenograft BM. The format is in vivo, human AML cells in mice. The procedure: Immunophenotyping for human hematopoietic cell surface markers was carried out using the following antibodies: V450-conjugated anti-CD45 (1:100; 2D1), APC-conjugated anti-CD33 (1:300; WM-33), PE-conjugated anti-CD34 (1:200; 581), FITC- or PE-conjugated anti-CD38 (1:100 or 1:500; HB7), FITC-conjugated anti-CD19 (1:100; HIB19), and APC-conjugated anti-CD3 (1:100; UCHT1; all from BD). In order to evaluate candidates from the LRC gene signature at the protein level, gene targets were identified with available commercial antibodies that had been validated for flow cytometry. Directly conjugated antibodies were used to detect human SLC2A2 (Alexa fluor 488-conjugated; 1:100; 199017; Novus Biologicals) and FASLG (FITC-conjugated; 1:100; SB93A; Thermo Fisher). Additionally, mouse anti-human primary antibodies that recognize human DRD2 (1:100; B-10; Santa Cruz) or FUT3 (1:100, F3, Thermo Fisher) were used, followed by incubation with an Alexa fluor 647- or 555-conjugated donkey anti-mouse secondary antibody ([…]; Thermo Fisher). In these cases of indirect staining, cells were first blocked with donkey serum (Jackson ImmunoResearch Laboratories) plus human FC block (eBioscience). […] When appropriate, fluorescence minus one and secondary antibody controls were used to optimize gating strategies for target cell populations. […]

Data set [2] deals with human AML cells (CD45+CD33+). As to the kind of experiment: Leukemic chimerism and growth rate in BM of AML-xenografted mice (FACS, serial BM aspirates). The note with it: for Leukemic chimerism levels following DRD2 antagonist therapy: mean ± SEM.
Data set [3] relates to human AML progenitors. As to the kind of experiment: CFU (methylcellulose) progenitor assay of human AML cells purified from treated xenograft BM.
Data set [4] has as its system human AML leukemia initiating cells (LSCs). Nature of the data set: Serial transplantation (limiting dilution) leukemia-initiating cell / LSC assay in secondary recipient mice. Format: in vivo, human AML cells in NOD/SCID or NSG mice. The source says:
The threshold for engraftment detection was set at ≥0.1% human chimerism.

Data set [5] concerns healthy human hematopoietic cells (CD45+). Nature of the data set: Healthy human hematopoietic chimerism and growth rate in xenografted mice. The conditions noted are these: healthy human grafts in mice.
A short description of data set [6]: Treatment-related mortality on AraC dose intensification in AML-xenografted mice. Format: in vivo, mouse. The note with it: AraC 100 mg/kg, 5 consecutive days. The source says: This more aggressive regime produced unacceptable treatment-related mortality rates of 60%, which was not balanced by any therapeutic benefit in the few mice that survived.

Structures are written as SMILES.

`CSc1ccc2c(c1)N(CCC1CCCCN1C)c1ccccc1S2` (stereo not shown) [DRD2 antagonist, thioridazine]: the “DRD2 protein expression in human leukemic cells from xenograft BM” value in data set [1] (DRD2 antagonist with AraC, LRC stage) is given as “loss of DRD2 protein expression”. Also, the “time to overt relapse” value in data set [2] (AML #3 xenografts, AraC plus DRD2 antagonist vs AraC alone, relapse set at 20% leukemic chimerism, estimated from growth rates) is recorded as “nearly doubled”. Also, the “Leukemic chimerism levels following DRD2 antagonist therapy” value was determined as 1.4 ± 0.3 in data set [2] (AML #5, LRCs (in combination with AraC)); 12.4 ± 2.2 in data set [2] (AML #5, Therapy-naive (single agent, no AraC)); 16.9 ± 8.7 in data set [2] (AML #10, LRCs (in combination with AraC)); 1.4 ± 1.4 in data set [2] (AML #11, LRCs (in combination with AraC)). For the same compound, the “leukemic growth rates after AraC” value in data set [2] (AML Patient #3 xenografts, DRD2 antagonist plus AraC vs AraC alone) was “successfully disrupted”. Further, in data set [2] (AML patient #13 xenografts, DRD2 antagonist added to AraC), the “recipients achieving disease-free status” value turned out to be 100%. In addition, the “overall cytoreductive activity of AraC (leukemic chimerism)” value in data set [2] (in vivo delivery of DRD2 antagonist with AraC) is “did not improve”. In addition, the “effect on progenitors of regenerating LRCs (CFU)” value in data set [3] (DRD2 antagonist in combination with AraC, 9 days after last AraC dose) was “profound effects”. In data set [3] (DRD2 antagonist single agent, 21-day regimen, AML xenografts), the “effect on AML progenitors arising from therapy-naive LSCs (CFU)” value is “moderately affected”. The “LIC content of therapy-naïve AML” value in data set [4] (DRD2 antagonist single agent, AML #5, serial transplantation) is recorded as “did not impact”. The “LIC activity of AraC-exposed LRCs” value in data set [4] (DRD2 antagonist together with AraC, AML #5, serial transplantation 9 days post-AraC) is “complete loss of LIC activity”. In addition, the “disease regeneration potential (secondary LIC assays and progenitor assays)” value in data set [4] (DRD2 antagonist with AraC, three additional AML patient samples) is “reproducibly blocked”.
In the case of `Nc1ccn([C@@H]2O[C@H](CO)[C@@H](O)[C@@H]2O)c(=O)n1` [AraC, Cytarabine], the “frequencies of primitive CD34+ and CD34+CD38− cells within residual AML populations” value in data set [1] (AraC 5 consecutive days, xenograft BM 24-72 hr after final dose) is “strongly reduced”. Further, the “re-growth rates of healthy human hematopoiesis after AraC cytoreduction” value in data set [5] is reported as “rates matching those of vehicle-treated controls”. Further, the treatment-related mortality rate in data set [6] stood at 60%. Also, the “recipient mice with persisting residual disease” value in data set [2] (AML patient #13 xenografts, AraC alone, 9 days after final AraC dose) is listed as 50%. Also, the “leukemic growth after AraC vs vehicle-treated controls” value in data set [2] (AML xenografts, kinetic modeling of serial BM aspirates) is “accelerated leukemic growth”. In data set [3] (AML xenografts, 48 hr after AraC withdrawal), the “functional progenitors in residual leukemic populations (CFU)” value was “depleted”. In addition, the “functional LSCs (serial LIC transplantation)” value in data set [4] (AML xenografts, 48 hr after final AraC dose) is listed as “suppressed”. The “#Engrafted mice” value in data set [4] (AML#2, +AraC, cell dose 1 × 10^6, cells transplanted 48 hr after final AraC dose) was 0/4; in data set [4] (AML#2, +AraC, cell dose 2 × 10^5, cells transplanted 48 hr after final AraC dose), 0/4; in data set [4] (AML#3, +AraC, cell dose 2 × 10^5, cells transplanted 48 hr after final AraC dose), 1/4; in data set [4] (AML#3, +AraC, cell dose 3 × 10^4, cells transplanted 48 hr after final AraC dose) it was 0/3.

Source of the values: patent US20200080157A1, “PROGNOSIS AND TREATMENT OF RELAPSING LEUKEMIA” (McMaster University, priority 2018, published 2020).
